Reference: patent publication US9885086B2, “Phospholipase C gamma 2 and resistance associated mutations” (Pharmacyclics LLC, priority 2014, dated 2018)

System: DT40 cells stably expressing mutated PLCγ2 (L845F)
Assay: Calcium flux assay in DT40 cells after anti-IgM stimulation
Assay type: cell-based, chicken
Conditions: L845F PLCγ2 mutant DT40 cells, 1 μM Ibrutinib 30 min
Protocol: The intracellular calcium level was detected by Calcium Assay Kit (BD Biosciences, San Diego, Calif.) and measured by Beckman Coulter DTX880 microplate reader. After 195 seconds of acquisition to determine the baseline, 3 μg/ml anti-chicken IgM (SouthernBiotech, Birmingham, Ala.) was added to stimulate the cells.
WT PLCγ2 and L845F PLCγ2 were stably transfected into 293 cells and DT40 cells which lack endogenous PLCγ2 expression (FIG. 5). Calcium flux was examined in DT40 cells after anti-IgM stimulation in the presence of WT or mutant PLCγ2.

C=CC(=O)N1CCC[C@@H](n2nc(-c3ccc(Oc4ccccc4)cc3)c3c(N)ncnc32)C1 [ibrutinib]
inhibition of IgM-mediated calcium flux: not inhibited
